Experimental data published in patent US11802111B2, “Cyclobutyl amide monoacylglycerol lipase modulators” (Janssen Pharmaceutica NV, priority 2020, dated 2023).
pIC50: −log10 of the molar value.

Each molecule was assayed against human MGL from HeLa cells (Homo sapiens (Human), UniProt Q99685) (assay: MGL in vitro activity assay ([glycerol-1,3-3H]-oleoyl glycerol hydrolysis, activated carbon filtration)). Details: 300 nM [Glycerol-1,3-3H]-oleoyl glycerol, one hour.
Format: biochemical
Outline: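 Activity measured as tritium in the flow-through after activated carbon filtration of a 1 h reaction containing 300 nM 3H-oleoyl glycerol, compound and HeLa-derived human MGL. Compounds screened at 10 μM; IC50 series start at an empirically chosen highest concentration.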

human MGL from HeLa cells, sequence (Q99685 whole entry): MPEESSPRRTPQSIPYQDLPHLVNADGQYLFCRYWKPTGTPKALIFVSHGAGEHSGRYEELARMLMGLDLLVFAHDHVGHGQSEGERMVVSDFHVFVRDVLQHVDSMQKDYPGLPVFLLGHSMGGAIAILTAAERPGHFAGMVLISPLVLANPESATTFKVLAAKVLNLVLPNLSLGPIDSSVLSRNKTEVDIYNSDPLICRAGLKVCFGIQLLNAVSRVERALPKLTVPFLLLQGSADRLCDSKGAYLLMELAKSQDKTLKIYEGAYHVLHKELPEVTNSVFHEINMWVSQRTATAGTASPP

Structure (SMILES) | pIC50
Cc1cnc(OC2CCC3(CC2)CN(C(=O)[C@H]2C[C@@](C)(O)C2)C3)c(C)c1 [Example 430, (7-((3,5-Dimethylpyridin-2-yl)oxy)-2-azaspiro[3.5]nonan-2-yl)((1s,3s)-3-hydroxy-3-methylcyclobutyl)methanone] | 7.92
CCc1cnc(OC2CCC3(CC2)CN(C(=O)[C@H]2C[C@@](C)(O)C2)C3)c(F)c1 [Example 433, (7-((5-Ethyl-3-fluoropyridin-2-yl)oxy)-2-azaspiro[3.5]nonan-2-yl)((1s,3s)-3-hydroxy-3-methylcyclobutyl)methanone] | 7.85
Cc1nc(OC2CCC3(CC2)CN(C(=O)[C@H]2C[C@@](C)(O)C2)C3)ccc1Cl [Example 434, (7-((5-Chloro-6-methylpyridin-2-yl)oxy)-2-azaspiro[3.5]nonan-2-yl)((1s,3s)-3-hydroxy-3-methylcyclobutyl)methanone] | 7.60
Cc1ccc(Cl)c(OC2CCC3(CC2)CN(C(=O)[C@H]2C[C@@](C)(O)C2)C3)n1 [Example 435, (7-((3-Chloro-6-methylpyridin-2-yl)oxy)-2-azaspiro[3.5]nonan-2-yl)((1s,3s)-3-hydroxy-3-methylcyclobutyl)methanone] | 8.08
Cc1cc(Cl)cnc1OC1CCC2(CC1)CN(C(=O)[C@H]1C[C@@](C)(O)C1)C2 [Example 437, (7-((5-Chloro-3-methylpyridin-2-yl)oxy)-2-azaspiro[3.5]nonan-2-yl)((1s,3s)-3-hydroxy-3-methylcyclobutyl)methanoneo] | 8.43
Cc1nc(OC2CCC3(CC2)CN(C(=O)[C@H]2C[C@@](C)(O)C2)C3)ccc1C(F)F [Example 438, (7-((5-(Difluoromethyl)-6-methylpyridin-2-yl)oxy)-2-azaspiro[3.5]nonan-2-yl)((1s,3s)-3-hydroxy-3-methylcyclobutyl)methanone] | 7.49
CCc1ccc(OC2CCC3(CC2)CN(C(=O)[C@H]2C[C@@](C)(O)C2)C3)nc1C(F)F [Example 439, (7-((6-(Difluoromethyl)-5-ethylpyridin-2-yl)oxy)-2-azaspiro[3.5]nonan-2-yl)((1s,3s)-3-hydroxy-3-methylcyclobutyl)methanone] | 8.74
CCc1nc(OC2CCC3(CC2)CN(C(=O)[C@H]2C[C@@](C)(O)C2)C3)ccc1C(F)F [Example 440, (7-((5-(Difluoromethyl)-6-ethylpyridin-2-yl)oxy)-2-azaspiro[3.5]nonan-2-yl)((1s,3s)-3-hydroxy-3-methylcyclobutyl)methanone] | 7.82
Cc1ccc(C(F)(F)F)c(OC2CCC3(CC2)CN(C(=O)[C@H]2C[C@@](C)(O)C2)C3)n1 [Example 443, ((1s,3s)-3-Hydroxy-3-methylcyclobutyl)(7-((6-methyl-3-(trifluoromethyl)pyridin-2-yl)oxy)-2-azaspiro[3.5]nonan-2-yl)methanone] | 7.77
Cc1cc(C(F)(F)F)cnc1OC1CCC2(CC1)CN(C(=O)[C@H]1C[C@@](C)(O)C1)C2 [Example 446, ((1s,3s)-3-Hydroxy-3-methylcyclobutyl)(7-((3-methyl-5-(trifluoromethyl)pyridin-2-yl)oxy)-2-azaspiro[3.5]nonan-2-yl)methanone] | 9.12
Cc1cc(C(F)(F)F)cc(OC2CCC3(CC2)CN(C(=O)[C@H]2C[C@@](C)(O)C2)C3)n1 [Example 447, ((1s,3s)-3-Hydroxy-3-methylcyclobutyl)(7-((6-methyl-4-(trifluoromethyl)pyridin-2-yl)oxy)-2-azaspiro[3.5]nonan-2-yl)methanone] | 6.96
Cc1nc(OC2CCC3(CC2)CN(C(=O)[C@H]2C[C@@](C)(O)C2)C3)ccc1C(F)(F)F [Example 448, ((1s,3s)-3-Hydroxy-3-methylcyclobutyl)(7-((6-methyl-5-(trifluoromethyl)pyridin-2-yl)oxy)-2-azaspiro[3.5]nonan-2-yl)methanone] | 8.62
CCc1ccc(OC2CCC3(CC2)CN(C(=O)[C@H]2C[C@@](C)(O)C2)C3)nc1C(F)(F)F [Example 450, (7-((5-Ethyl-6-(trifluoromethyl)pyridin-2-yl)oxy)-2-azaspiro[3.5]nonan-2-yl)((1s,3s)-3-hydroxy-3-methylcyclobutyl)methanone] | 8.54
Cc1ccc(OC2CCC3(CC2)CN(C(=O)[C@H]2C[C@@](C)(O)C2)C3)nc1C(F)(F)F [Example 451, ((1s,3s)-3-Hydroxy-3-methylcyclobutyl)(7-((5-methyl-6-(trifluoromethyl)pyridin-2-yl)oxy)-2-azaspiro[3.5]nonan-2-yl)methanone] | 8.09
CC[C@]1(O)C[C@@H](C(=O)N2CC3(CCC(Oc4ccc(C)c(C(F)(F)F)n4)CC3)C2)C1 [Example 452, ((1r,3s)-3-Ethyl-3-hydroxycyclobutyl)(7-((5-methyl-6-(trifluoromethyl)pyridin-2-yl)oxy)-2-azaspiro[3.5]nonan-2-yl)methanone] | 7.70
Cc1ccc(OC2CCC3(CC2)CN(C(=O)[C@H]2C[C@](O)(C(F)F)C2)C3)nc1C(F)(F)F [Example 453, ((1s,3s)-3-(Difluoromethyl)-3-hydroxycyclobutyl)(7-((5-methyl-6-(trifluoromethyl)pyridin-2-yl)oxy)-2-azaspiro[3.5]nonan-2-yl)methanone] | 7.72
COc1nc(OC2CCC3(CC2)CN(C(=O)[C@H]2C[C@@](C)(O)C2)C3)ccc1C1CC1 [Example 455, (7-((5-Cyclopropyl-6-methoxypyridin-2-yl)oxy)-2-azaspiro[3.5]nonan-2-yl)((1s,3s)-3-hydroxy-3-methylcyclobutyl)methanone] | 8.89

Second part, the molecule after the results:

pIC50 | Structure (SMILES)
7.72 | Cc1ccc(C)c(OC2CCC3(CC2)CN(C(=O)[C@H]2C[C@@](C)(O)C2)C3)n1 [Example 429, (7-((3,6-Dimethylpyridin-2-yl)oxy)-2-azaspiro[3.5]nonan-2-yl)((1s,3 s)-3-hydroxy-3-methylcyclobutyl)methanone]
7.01 | Cc1ccc(F)c(OC2CCC3(CC2)CN(C(=O)[C@H]2C[C@@](C)(O)C2)C3)n1 [Example 431, (7-((3-Fluoro-6-methylpyridin-2-yl)oxy)-2-azaspiro[3.5]nonan-2-yl)((1s,3s)-3-hydroxy-3-methylcyclobutyl)methanone]
7.15 | Cc1cnc(OC2CCC3(CC2)CN(C(=O)[C@H]2C[C@@](C)(O)C2)C3)c(F)c1 [Example 432, (7-((3-Fluoro-5-methylpyridin-2-yl)oxy)-2-azaspiro[3.5]nonan-2-yl)((1s,3s)-3-hydroxy-3-methylcyclobutyl)methanone]
7.89 | Cc1cnc(OC2CCC3(CC2)CN(C(=O)[C@H]2C[C@@](C)(O)C2)C3)c(Cl)c1 [Example 436, (7-((3-Chloro-5-methylpyridin-2-yl)oxy)-2-azaspiro[3.5]nonan-2-yl)((1s,3s)-3-hydroxy-3-methylcyclobutyl)methanone]
7.85 | CCc1ccc(C(F)F)c(OC2CCC3(CC2)CN(C(=O)[C@H]2C[C@@](C)(O)C2)C3)n1 [Example 441, (7-((3-(Difluoromethyl)-6-ethylpyridin-2-yl)oxy)-2-azaspiro[3.5]nonan-2-yl)((1s,3s)-3-hydroxy-3-methylcyclobutyl)methanone]
8.02 | Cc1cc(OC2CCC3(CC2)CN(C(=O)[C@H]2C[C@@](C)(O)C2)C3)ncc1C(F)(F)F [Example 442, ((1s,3s)-3-Hydroxy-3-methylcyclobutyl)(7-((4-methyl-5-(trifluoromethyl)pyridin-2-yl)oxy)-2-azaspiro[3.5]nonan-2-yl)methanone]
8.07 | Cc1ccc(C(F)(F)F)nc1OC1CCC2(CC1)CN(C(=O)[C@H]1C[C@@](C)(O)C1)C2 [Example 449, ((1s,3s)-3-Hydroxy-3-methylcyclobutyl)(7-((3-methyl-6-(trifluoromethyl)pyridin-2-yl)oxy)-2-azaspiro[3.5]nonan-2-yl)methanone]
8.66 | CCc1ccc(OC2CCC3(CC2)CN(C(=O)[C@H]2C[C@@](C)(O)C2)C3)nc1OC [Example 454, (7-((5-Ethyl-6-methoxypyridin-2-yl)oxy)-2-azaspiro[3.5]nonan-2-yl)((1s,3s)-3-hydroxy-3-methylcyclobutyl)methanone]
7.72 | COc1nc(OC2CCC3(CC2)CN(C(=O)[C@H]2C[C@@](C)(O)C2)C3)ccc1C [Example 456, ((1s,3s)-3-Hydroxy-3-methylcyclobutyl)(7-((6-methoxy-5-methylpyridin-2-yl)oxy)-2-azaspiro[3.5]nonan-2-yl)methanone]
7.89 | C[C@]1(O)C[C@@H](C(=O)N2CC3(CCC(Oc4ncc(C(F)(F)F)cc4F)CC3)C2)C1 [Example 457, (7-((3-Fluoro-5-(trifluoromethyl)pyridin-2-yl)oxy)-2-azaspiro[3.5]nonan-2-yl)((1s,3s)-3-hydroxy-3-methylcyclobutyl)methanone]
9.26 | COc1nc(OC2CCC3(CC2)CN(C(=O)[C@H]2C[C@@](C)(O)C2)C3)ccc1C(F)(F)F [Example 458, ((1s,3s)-3-Hydroxy-3-methylcyclobutyl)(7-((6-methoxy-5-(trifluoromethyl)pyridin-2-yl)oxy)-2-azaspiro[3.5]nonan-2-yl)methanone]
9.66 | CCOc1nc(OC2CCC3(CC2)CN(C(=O)[C@H]2C[C@@](C)(O)C2)C3)ccc1C(F)(F)F [Example 459, (7-((6-Ethoxy-5-(trifluoromethyl)pyridin-2-yl)oxy)-2-azaspiro[3.5]nonan-2-yl)((1s,3s)-3-hydroxy-3-methylcyclobutyl)methanone]
6.85 | COc1cc(OC2CCC3(CC2)CN(C(=O)[C@H]2C[C@@](C)(O)C2)C3)ncc1Cl [Example 460, (7-((5-Chloro-4-methoxypyridin-2-yl)oxy)-2-azaspiro[3.5]nonan-2-yl)((1s,3s)-3-hydroxy-3-methylcyclobutyl)methanone]
8.21 | COc1nc(OC2CCC3(CC2)CN(C(=O)[C@H]2C[C@@](C)(O)C2)C3)ccc1Cl [Example 461, (7-((5-Chloro-6-methoxypyridin-2-yl)oxy)-2-azaspiro[3.5]nonan-2-yl)((1s,3s)-3-hydroxy-3-methylcyclobutyl)methanone]
